According to BigSolDB 2.1:

CCOc1ccccc1C(N)=O
solubility (mole fraction)
Conditions	288.15 K	293.15 K	298.15 K	303.15 K	308.15 K	313.15 K	318.15 K	323.15 K	328.15 K
in 1,4-dioxane	0.0116	0.0144	0.0175	0.0221	0.0272	0.0341	0.0427	0.0527	0.0653
in 2-butanone	0.0124	0.015	0.0179	0.0218	0.0268	0.0335	0.0413	0.0501	0.0609
in DMF	0.0485	0.0566	0.0653	0.0754	0.0875	0.101	0.117	0.133	0.151
in acetone	0.0124	0.0153	0.0184	0.0226	0.0277	0.0344	0.0424	0.0507	0.0611
in ethyl formate	0.00842	0.0103	0.0122	0.0151	0.0188	0.0238	0.0293	0.0354	0.0429
in isopropanol	0.00616	0.00748	0.00916	0.0122	0.0157	0.0205	0.0265	0.0339	0.0423
in methyl acetate	0.00747	0.00924	0.0114	0.0142	0.0182	0.023	0.0285	0.0349	0.0428
in n-butanol	0.00781	0.00989	0.0122	0.0158	0.0199	0.0251	0.0322	0.0402	0.0498
in n-butyl acetate	0.00505	0.00603	0.00705	0.0089	0.011	0.0134	0.0165	0.0201	0.0245
in n-pentanol	0.00858	0.0106	0.0131	0.0165	0.0207	0.026	0.0329	0.0406	0.0504
in n-propyl acetate	0.00566	0.0069	0.0082	0.0101	0.0122	0.015	0.0185	0.0227	0.0271
in sec-butanol	0.00735	0.00924	0.0117	0.0153	0.0198	0.0256	0.0326	0.0411	0.0518
